For 55 molecules, EC50, IC50 and inhibition results are on record in ChEMBL document CHEMBL1129550, “Synthesis and cyclic GMP phosphodiesterase inhibitory activity of a series of 6-phenylpyrazolo[3,4-d]pyrimidones” (J Med Chem, 1996).

Test [1] has as its target cGMP-specific 3',5'-cyclic phosphodiesterase (Rattus norvegicus, UniProt O54735). Description: Compound was tested for inhibition of stimulation of rat aortic smooth muscle cells (RSMC). It counts as functional.
Test [2] addresses T1, cGMP-specific 3',5'-cyclic phosphodiesterase (Homo sapiens, UniProt O76074). Description: Inhibition of Phosphodiesterase 5 from human.
The target in test [3] is T1, cGMP-specific 3',5'-cyclic phosphodiesterase. Description: Inhibition of Phosphodiesterase 5 from human at dose 10 uM.

Broadly, the EC50 is the concentration needed to bring the measured effect to its halfway point. Lower therefore signals a more potent agent. What is called IC50 is the concentration at which inhibition is half-maximal. A high value points to weaker potency in that assay. The molecule `CCCOc1ccc(N)cc1-c1nc2c(c(C)nn2C)c(=O)[nH]1` gave an EC50 in test [1] of 0.3 µM. In test [2], half-maximal inhibition (IC50) was put at 0.01 µM.
With `CCCOc1ccccc1-c1nc(O)c2c(C)csc2n1`, the EC50 in test [1] turned out to be 0.7 µM. This molecule also had an IC50 in test [2] of 0.06 µM.
`CCCOc1ccc(NC(=O)Nc2ccc(F)cc2)cc1-c1nc2c(c(C)nn2C)c(=O)[nH]1` registered an EC50 in test [1] of 0.04 µM. The same molecule returned an IC50 in test [2] of 0.0002 µM.
For `CCCOc1ccc(NC(C)=O)cc1-c1nc2c(c(C)nn2C)c(=O)[nH]1` the same measures were 0.04 µM and 0.0008 µM.
As for `CCCOc1ccc(NS(C)(=O)=O)cc1-c1nc2c(c(C)nn2C)c(=O)[nH]1`, in test [1], the concentration giving a half-maximal response (EC50) stood at 0.35 µM. For the same molecule, inhibition in test [2] was half-maximal at 0.003 µM (IC50).
In turn, `CCCOc1ccc(C(=O)CN2CCOCC2)cc1-c1nc2c(c(C)nn2C)c(=O)[nH]1` displayed an EC50 in test [1] of 0.3 µM. In test [2], this molecule gave an IC50 of 0.004 µM.
For `CCCOc1ccc(NC(C)=O)cc1-c1nc2c(c(C)nn2CC)c(=O)[nH]1` the same measures were 0.03 µM and 0.002 µM.
For `CCCOc1ccccc1-c1nc2c(c(C)nn2Cc2ccccc2)c(=O)[nH]1` the same measures were 0.35 µM and 0.07 µM.
Taken in the same sequence, the figures for `CCCOc1ccc(-c2csc(-c3ccccc3)n2)cc1-c1nc2c(c(C)nn2CC)c(=O)[nH]1` were 0.2 µM and 0.003 µM.
Consider `CCCOc1ccc(NC(=O)NCC)cc1-c1nc2c(c(C)nn2C)c(=O)[nH]1`, for which the 50% effective concentration (EC50) in test [1] is 0.05 µM. The same molecule returned an IC50 in test [2] of 0.003 µM.
In test [1], `CCCOc1ccccc1-c1nc2c(c(C)nn2CCC)c(=O)[nH]1` registered an EC50 of 0.15 µM. In addition, the IC50 in test [2] came out at 0.001 µM.
For `CCCOc1ccccc1-c1nc2c(c(C)nn2C)c(=O)[nH]1`, in test [1], a half-maximal effect (EC50) was put at 0.2 µM. That is a sub-micromolar value.
In test [1], `CCCOc1ccc(NS(C)(=O)=O)cc1-c1nc2c(c(C)nn2CC)c(=O)[nH]1` displayed an EC50 of 0.2 µM. In test [2], this molecule registered an IC50 of 0.004 µM.
For `CCCOc1ccc(-c2cccs2)cc1-c1nc2c(c(C)nn2C)c(=O)[nH]1` the same measures were 0.3 µM and 0.005 µM.
For `CCCOc1ccc(-c2n[nH]c(-c3ccccc3)n2)cc1-c1nc2c(c(C)nn2C)c(=O)[nH]1` the same measures were < 0.1 µM and 0.02 µM.
Taken in the same sequence, the figures for `CCCOc1ccccc1-c1nc(O)c2ccsc2n1` were 2.5 µM and 0.1 µM.
In the case of `CCCOc1ccc(-c2n[nH]c(-c3ccccc3)n2)cc1-c1nc2c(c(C)nn2CC)c(=O)[nH]1`, the EC50 in test [1] was < 0.01 µM. The molecule further gave an IC50 in test [2] of 0.0017 µM.
For the molecule `CCCOc1ccc(-c2nccs2)cc1-c1nc2c(c(C)nn2C)c(=O)[nH]1`, in test [1], the EC50 is < 0.1 µM. Also, the IC50 in test [2] was determined as 0.003 µM.
For `CCCOc1ccc(N(C)C)cc1-c1nc2c(c(C)nn2CC)c(=O)[nH]1` the same measures were 1.5 µM and 0.004 µM.
Taken in the same sequence, the figures for `CCCOc1ccc(-c2csc(-c3ccccc3)n2)cc1-c1nc2c(c(C)nn2C)c(=O)[nH]1` were 0.2 µM and 0.0025 µM.
`CCCOc1ccc(NC(=S)NC(=O)OCC)cc1-c1nc2c(c(C)nn2C)c(=O)[nH]1` yielded an EC50 in test [1] of 0.04 µM. Further, in test [2], the IC50 was found to be 0.002 µM.
Taken in the same sequence, the figures for `CCCOc1ccc(NC(=O)c2ccc(F)cc2)cc1-c1nc2c(c(C)nn2C)c(=O)[nH]1` were < 0.01 µM and 0.002 µM.
In turn, `CCCOc1ccc(-c2nc(C)cs2)cc1-c1nc2c(c(C)nn2C)c(=O)[nH]1` yielded an EC50 in test [1] of 0.45 µM. The molecule also returned an IC50 in test [2] of 0.0025 µM.
In the case of `CCCOc1ccc(-c2csc(C)n2)cc1-c1nc2c(c(C)nn2CC)c(=O)[nH]1`, the EC50 in test [1] was < 0.1 µM.
Regarding `Cc1nn(C)c2nc(-c3ccccc3OC(C)C)[nH]c(=O)c12`, the EC50 in test [1] was found to be 1 µM. Also, in test [2], half-maximal inhibition (IC50) was put at 0.04 µM.
In test [1], `CCCOc1ccccc1-c1nc2nc[nH]c2c(=O)[nH]1` returned an EC50 of 2 µM.
Consider `CCCOc1ccccc1-c1nc2c(c(C)nn2CC)c(=O)[nH]1`, for which the EC50 in test [1] was < 0.1 µM. It took 0.002 µM to reach half-maximal inhibition in test [2] (IC50).
Taken in the same sequence, the figures for `CCCOc1ccc(NC(N)=S)cc1-c1nc2c(c(C)nn2C)c(=O)[nH]1` were 1 µM and 0.001 µM.
Taken in the same sequence, the figures for `CCCOc1ccc(NC(N)=O)cc1-c1nc2c(c(C)nn2C)c(=O)[nH]1` were 0.9 µM and 0.002 µM.
Consider `CCCOc1ccc([N+](=O)[O-])cc1-c1nc2c(c(C)nn2C)c(=O)[nH]1`, for which the EC50 in test [1] stood at 0.1 µM. In addition, in test [2], the midpoint of inhibition, the IC50, lay at 0.004 µM.
For `CCCOc1ccc(N(C)C)cc1-c1nc2c(c(C)nn2C)c(=O)[nH]1` the same measures were 0.3 µM and 0.005 µM.
Taken in the same sequence, the figures for `CCCOc1ccccc1-c1nc(O)c2c[nH]nc2n1` were > 10 µM and 0.15 µM.
Taken in the same sequence, the figures for `CCCOc1ccc(-c2nc(C)cs2)cc1-c1nc2c(c(C)nn2CC)c(=O)[nH]1` were < 0.1 µM and 0.002 µM.
On to `CCCOc1ccc(-c2csc(C)n2)cc1-c1nc2c(c(C)nn2C)c(=O)[nH]1`, for which the EC50 in test [1] was 0.2 µM. In test [2], inhibition was half-maximal at 0.0025 µM (IC50).
Taken in the same sequence, the figures for `CCCCn1nc(C)c2c(=O)[nH]c(-c3ccccc3OCCC)nc21` were 0.9 µM and 0.006 µM.
For `CCCOc1ccccc1-c1nc(O)c2scc(C)c2n1` the same measures were 1.5 µM and 0.08 µM.
Taken in the same sequence, the figures for `CCOc1ccccc1-c1nc2c(c(C)nn2C)c(=O)[nH]1` were 2 µM and 0.03 µM.
Molecule `CCCOc1ccc(NC(=O)OC)cc1-c1nc2c(c(C)nn2C)c(=O)[nH]1` displayed an EC50 in test [1] of 0.1 µM. 0.002 µM corresponded to half-maximal inhibition in test [2] (IC50).
With `CCCOc1ccccc1-c1nc2onc(C)c2c(=O)[nH]1`, in test [1], the EC50 was > 10 µM. 0.1 µM corresponded to half-maximal inhibition in test [2] (IC50).
For `CCCOc1ccccc1-c1nc(O)c2sccc2n1` the same measures were 1 µM and 0.05 µM.
Taken in the same sequence, the figures for `CCCOc1ccccc1-c1nc2c(c(C)nn2C(C)(C)C)c(=O)[nH]1` were 0.2 µM and 0.02 µM.
For `CCCOc1ccc(NC(=O)CN2CCN(C)CC2)cc1-c1nc2c(c(C)nn2C)c(=O)[nH]1` the same measures were 0.4 µM and 0.0035 µM.
In test [1], `CCCOc1ccccc1-c1nc2ccncc2c(=O)[nH]1` registered an EC50 of 10 µM. Also, in test [2], the half-inhibitory concentration (IC50) was 0.05 µM.
For orientation: inhibition means the drop in the measured response relative to a control, in per cent. Read a low inhibition as a weak effect. For the molecule `CCC[S+]([O-])c1ccccc1-c1nc2c(c(C)nn2C)c(=O)[nH]1` (stereo unspecified), the inhibition in test [3] came to 59%.
In test [1], `CCCOc1ccccc1-c1nc(O)c2c(C)snc2n1` had an EC50 of 1.5 µM. This molecule also registered an IC50 in test [2] of 0.03 µM.
Taken in the same sequence, the figures for `CCCOc1ccc(-c2csc(-c3cccnc3)n2)cc1-c1nc2c(c(C)nn2CC)c(=O)[nH]1` were < 0.1 µM and 0.002 µM.
Taken in the same sequence, the figures for `CCCOc1ccc(-c2ccc(C)s2)cc1-c1nc2c(c(C)nn2C)c(=O)[nH]1` were < 0.1 µM and 0.004 µM.
For `CCCOc1ccc([N+](=O)[O-])cc1-c1nc2c(c(C)nn2CC)c(=O)[nH]1` the same measures were 0.05 µM and 0.0001 µM.
As for `CCCOc1ccc(NC(=O)c2cccs2)cc1-c1nc2c(c(C)nn2C)c(=O)[nH]1`, the EC50 in test [1] is < 0.01 µM. This molecule came in with a half-inhibitory concentration (IC50) in test [2] of 0.0015 µM.
For `CCCOc1ccc(N)cc1-c1nc2c(c(C)nn2CC)c(=O)[nH]1` the same measures were 0.02 µM and 0.007 µM.
The molecule `CCCOc1ccccc1-c1nc2c(c(C)nn2CC(F)(F)F)c(=O)[nH]1` gave a concentration for a half-maximal effect (EC50) in test [1] of 1.5 µM. For the same molecule, it took 0.007 µM to reach half-maximal inhibition in test [2] (IC50).
For `CCCOc1ccccc1-c1nc2ncncc2c(=O)[nH]1` the same measures were 7.5 µM and 0.3 µM.
For `CCCOc1ccc(NC(=S)NCC)cc1-c1nc2c(c(C)nn2C)c(=O)[nH]1` the same measures were 0.06 µM and 0.003 µM.
For `CCCOc1ccc(Nc2nnc(N)[nH]2)cc1-c1nc2c(c(C)nn2C)c(=O)[nH]1` the same measures were > 10 µM and 0.005 µM.
`CCCOc1ccccc1-c1nc2cnccc2c(=O)[nH]1` came in with an EC50 in test [1] of 2 µM. Moreover, the IC50 in test [2] stood at 0.07 µM.
